Results from patent US11535629B2, “Dioxoloisoquinolinone derivatives and use thereof” (HANMI PHARMACEUTICAL CO., LTD., priority 2020, dated 2022).
Where two headings read alike, the source gives them in different places.

How the values were obtained:
KARPAS-422 cells = experiment: Cell growth inhibition test (CTG method); type: cell-based; conditions: KARPAS-422 (EZH2^Y641N mutant), culturing for 7 days, read-out: Cell growth inhibitory activity (GI50, nM) KARPAS-422 (EZH2^Y641N mutant)
Procedure: The cultured cell strain was prepared at 1.8×10^4 cells/400 μL and placed in a 48-well plate.

EZH1 = EZH1 (Homo sapiens (Human), UniProt Q92800); experiment: EZH1 methyltransferase inhibitory activity (radiometric scintillation proximity assay)
Sequence of EZH1 (Q92800 whole entry): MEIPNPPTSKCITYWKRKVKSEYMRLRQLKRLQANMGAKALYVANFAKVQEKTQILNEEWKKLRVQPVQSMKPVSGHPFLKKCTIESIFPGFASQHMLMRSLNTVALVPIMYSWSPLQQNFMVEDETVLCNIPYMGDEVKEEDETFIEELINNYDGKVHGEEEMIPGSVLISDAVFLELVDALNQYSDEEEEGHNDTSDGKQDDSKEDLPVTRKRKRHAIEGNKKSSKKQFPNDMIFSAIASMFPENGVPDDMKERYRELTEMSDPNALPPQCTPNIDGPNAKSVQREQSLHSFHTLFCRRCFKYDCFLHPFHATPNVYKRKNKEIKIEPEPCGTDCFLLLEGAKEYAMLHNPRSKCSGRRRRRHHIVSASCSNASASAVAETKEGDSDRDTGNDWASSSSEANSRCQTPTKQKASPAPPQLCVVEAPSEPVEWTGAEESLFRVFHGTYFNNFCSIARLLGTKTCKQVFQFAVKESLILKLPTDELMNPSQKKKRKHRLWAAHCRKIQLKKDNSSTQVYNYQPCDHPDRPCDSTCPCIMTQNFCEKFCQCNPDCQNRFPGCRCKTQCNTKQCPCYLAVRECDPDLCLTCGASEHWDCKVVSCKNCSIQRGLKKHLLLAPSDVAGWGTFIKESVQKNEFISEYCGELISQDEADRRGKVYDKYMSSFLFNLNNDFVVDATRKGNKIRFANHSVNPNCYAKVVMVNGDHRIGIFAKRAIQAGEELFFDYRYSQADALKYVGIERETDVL
Sequence of EZH1 (O75530 whole entry partner): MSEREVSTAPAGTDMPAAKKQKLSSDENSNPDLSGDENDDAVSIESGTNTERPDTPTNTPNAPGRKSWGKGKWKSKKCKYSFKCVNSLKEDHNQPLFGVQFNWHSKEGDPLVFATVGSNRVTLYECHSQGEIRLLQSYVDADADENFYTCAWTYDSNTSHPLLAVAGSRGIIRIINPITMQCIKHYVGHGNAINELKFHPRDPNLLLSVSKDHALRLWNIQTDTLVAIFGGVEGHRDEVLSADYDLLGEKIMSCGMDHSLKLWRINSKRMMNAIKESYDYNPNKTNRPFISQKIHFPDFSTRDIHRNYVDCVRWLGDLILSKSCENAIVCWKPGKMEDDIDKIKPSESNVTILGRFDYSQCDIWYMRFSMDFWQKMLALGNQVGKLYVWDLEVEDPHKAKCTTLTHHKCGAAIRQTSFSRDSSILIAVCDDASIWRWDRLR
Sequence of EZH1 (Q15022 whole entry partner): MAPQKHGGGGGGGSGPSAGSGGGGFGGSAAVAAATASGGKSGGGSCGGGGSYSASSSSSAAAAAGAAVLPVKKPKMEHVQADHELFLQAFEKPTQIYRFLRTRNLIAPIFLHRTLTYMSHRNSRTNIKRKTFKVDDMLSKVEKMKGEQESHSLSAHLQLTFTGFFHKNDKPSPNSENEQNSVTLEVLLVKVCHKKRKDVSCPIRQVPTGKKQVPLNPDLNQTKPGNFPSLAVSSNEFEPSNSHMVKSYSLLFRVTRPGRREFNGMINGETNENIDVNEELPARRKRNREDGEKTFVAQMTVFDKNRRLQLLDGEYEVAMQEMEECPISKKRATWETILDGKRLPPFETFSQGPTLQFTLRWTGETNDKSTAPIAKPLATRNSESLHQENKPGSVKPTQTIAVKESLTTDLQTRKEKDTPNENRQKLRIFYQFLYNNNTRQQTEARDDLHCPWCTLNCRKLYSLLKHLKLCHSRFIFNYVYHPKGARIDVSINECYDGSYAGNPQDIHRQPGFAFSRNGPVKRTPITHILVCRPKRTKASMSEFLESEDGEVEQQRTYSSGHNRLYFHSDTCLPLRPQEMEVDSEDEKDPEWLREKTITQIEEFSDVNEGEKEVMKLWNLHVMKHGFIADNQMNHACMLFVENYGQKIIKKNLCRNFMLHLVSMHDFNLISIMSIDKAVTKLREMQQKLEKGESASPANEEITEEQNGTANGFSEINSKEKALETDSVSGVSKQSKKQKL
Sequence of EZH1 (Q09028 whole entry partner): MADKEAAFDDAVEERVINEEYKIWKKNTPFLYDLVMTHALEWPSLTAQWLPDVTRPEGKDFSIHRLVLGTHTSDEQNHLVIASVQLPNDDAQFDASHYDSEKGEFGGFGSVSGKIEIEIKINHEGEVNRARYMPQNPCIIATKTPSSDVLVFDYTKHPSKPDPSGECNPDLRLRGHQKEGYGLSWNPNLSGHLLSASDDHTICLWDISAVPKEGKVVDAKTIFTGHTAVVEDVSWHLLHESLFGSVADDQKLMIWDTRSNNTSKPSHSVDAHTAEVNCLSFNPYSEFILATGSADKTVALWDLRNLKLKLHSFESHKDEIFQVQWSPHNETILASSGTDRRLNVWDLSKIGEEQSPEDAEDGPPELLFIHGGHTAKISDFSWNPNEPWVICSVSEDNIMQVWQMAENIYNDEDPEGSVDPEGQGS
Sequence of EZH1 (Q6ZN18 whole entry partner): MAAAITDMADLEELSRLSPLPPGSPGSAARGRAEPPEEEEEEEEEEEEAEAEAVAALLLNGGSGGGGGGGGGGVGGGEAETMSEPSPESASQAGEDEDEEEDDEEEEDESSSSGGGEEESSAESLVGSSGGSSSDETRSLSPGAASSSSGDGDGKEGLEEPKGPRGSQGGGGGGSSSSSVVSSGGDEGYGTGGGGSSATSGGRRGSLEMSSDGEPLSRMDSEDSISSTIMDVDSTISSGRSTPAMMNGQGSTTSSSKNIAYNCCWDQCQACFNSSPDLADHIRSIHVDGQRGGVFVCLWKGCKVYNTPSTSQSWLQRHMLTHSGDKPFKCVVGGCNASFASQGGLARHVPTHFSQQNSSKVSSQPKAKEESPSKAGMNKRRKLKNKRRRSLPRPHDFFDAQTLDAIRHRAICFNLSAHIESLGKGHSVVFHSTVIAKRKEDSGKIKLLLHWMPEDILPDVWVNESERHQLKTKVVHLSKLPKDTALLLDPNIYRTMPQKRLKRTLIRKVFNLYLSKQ
Procedure: The inhibitory activity of the synthesized compounds above against EZH1 or EZH2 methyltransferase was measured. The experiments were consigned to Reaction Biology, and EZH1 or EZH2 activity was measured using a radiometric scintillation proximity assay. […] The buffer solution was comprised of 50 mmol/L Tris-HCl pH 8.0, 50 mmol/L NaCl, 1 mmol/L EDTA, 1 mmoL/L DTT, 1 mmol/L PMSF and 1% DMSO. Trichloroacetic acid was added to end the reaction, and SPA beads coated with PVT streptavidin were added followed by 1 hour reaction at room temperature. A TopCount NXT plate reader was used to measure the methylation value of the substrate peptide. The measured values were converted to percent activity, setting the mean value for wells treated with DMSO as 100% and the background mean value as 0%.

[1] = Homo sapiens, KARPAS-422, 168 h
[2] = read-out: Enzyme inhibitory activity (IC50, nM) EZH1, 2.3 nmol/L EZH1, 90 minutes at room temperature

Row | SMILES | GI50 (KARPAS-422 cells; [1]) [nM] | IC50 (EZH1; [2]) [nM] | GI50 (KARPAS-422 cells) [nM] | IC50 (EZH1) [nM]
1 | Cc1cc(C)c(CN2CCc3c(c(C)c4c(c3-c3cccnc3)O[C@](C)([C@H]3CC[C@H](N(C)C)CC3)O4)C2=O)c(=O)[nH]1 [Compound 44, (R)-6-((4,6-dimethyl-2-oxo-1,2-dihydropyridin-3-yl)methyl)-2-(trans-4-(dimethylamino)cyclohexyl)-2,4-dimethyl-9-(pyridin-3-yl)-7,8-dihydro-[1,3]dioxolo[4,5-g]isoquinolin-5(6H)-one] | 5.1 | 14 |  | 
2 | Cc1cc(C)c(CN2CCc3c(c(C)c4c(c3-c3cccn3C)O[C@](C)([C@H]3CC[C@H](N(C)C)CC3)O4)C2=O)c(=O)[nH]1 [Compound 48, (R)-6-((4,6-dimethyl-2-oxo-1,2-dihydropyridin-3-yl)methyl)-2-(trans-4-(dimethylamino)cyclohexyl)-2,4-dimethyl-9-(1-methyl-1H-pyrrol-2-yl)-7,8-dihydro-[1,3]dioxolo[4,5-g]isoquinolin-5(6H)-one] | 5.5 | 20 |  | 
3 | CSc1cc(C)[nH]c(=O)c1CN1CCc2c(Cl)c3c(c(C)c2C1=O)OC(C)(C12CCC(N(C)C)(CC1)CC2)O3 (single isomer, unassigned) [Compound 8, 9-chloro-2-(4-(dimethylamino)bicyclo[2.2.2]octan-1-yl)-2,4-dimethyl-6-((6-methyl-4-(methylthio)-2-oxo-1,2-dihydropyridin-3-yl)methyl)-7,8-dihydro[1,3]dioxolo[4,5-g]isoquinolin-5(6H)-one] |  |  | 3.9 | 167
4 | Cc1cc(C)c(CN2CCc3c(c(C)c4c(c3-c3ccco3)O[C@](C)([C@H]3CC[C@H](N(C)C)CC3)O4)C2=O)c(=O)[nH]1 [Compound 30, (R)-6-((4,6-dimethyl-2-oxo-1,2-dihydropyridin-3-yl)methyl)-2-(trans-4-(dimethylamino)cyclohexyl)-9-(furan-2-yl)-2,4-dimethyl-7,8-dihydro-[1,3]dioxolo[4,5-g]isoquinolin-5(6H)-one] | 3.9 to 8.4 |  |  | 8.3 to 10
5 | Cc1cc(C)c(CN2CCc3c(c(C)c4c(c3-c3ccsc3)O[C@](C)([C@H]3CC[C@H](N(C)C)CC3)O4)C2=O)c(=O)[nH]1 [Compound 50, (R)-6-((4,6-dimethyl-2-oxo-1,2-dihydropyridin-3-yl)methyl)-2-(trans-4-(dimethylamino)cyclohexyl)-2,4-dimethyl-9-(thiophen-3-yl)-7,8-dihydro-[1,3]dioxolo[4,5-g]isoquinolin-5(6H)-one] | 4.9 | 22 |  | 
6 | COc1cc(C)[nH]c(=O)c1CN1CCc2c(Cl)c3c(c(C)c2C1=O)OC(C)(C12CCC(N(C)C)(CC1)CC2)O3 (single isomer, unassigned) [Compound 5, 9-chloro-2-(4-(dimethylamino)bicyclo[2.2.2]octan-1-yl)-6-((4-methoxy-6-methyl-2-oxo-1,2-dihydropyridin-3-yl)methyl)-2,4-dimethyl-7,8-dihydro[1,3]dioxolo[4,5-g]isoquinolin-5(6H)-one] |  |  | 4.5 | 17
7 | Cc1cc(C)c(CN2CCc3c(Cl)c4c(c(C)c3C2=O)OC(C)(C23CCC(N(C)C)(CC2)CC3)O4)c(=O)[nH]1 (single isomer, unassigned) [Compound 2, 9-chloro-6-((4,6-dimethyl-2-oxo-1,2-dihydropyridin-3-yl)methyl)-2-(4-(dimethylamino)bicyclo[2.2.2]octan-1-yl)-2,4-dimethyl-7,8-dihydro-[1,3]dioxolo[4,5-g]isoquinolin-5(6H)-one] |  |  | 4.5 | 15
8 | Cc1cc(C)c(CN2CCc3c(Br)c4c(c(C)c3C2=O)OC(C)(C23CCC(N(C)C)(CC2)CC3)O4)c(=O)[nH]1 (single isomer, unassigned) [Compound 11, 9-bromo-6-((4,6-dimethyl-2-oxo-1,2-dihydropyridin-3-yl)methyl)-2-(4-(dimethylamino)bicyclo[2.2.2]octan-1-yl)-2,4-dimethyl-7,8-dihydro-[1,3]dioxolo[4,5-g]isoquinolin-5(6H)-one] |  |  | 3.8 to 12 | 15
9 | Cc1cc(C)c(CN2CCc3c(C)c4c(c(C)c3C2=O)OC(C)(C23CCC(N(C)C)(CC2)CC3)O4)c(=O)[nH]1 (single isomer, unassigned) [Compound 23, 6-((4,6-dimethyl-2-oxo-1,2-dihydropyridin-3-yl)methyl)-2-(4-(dimethylamino)bicyclo[2.2.2]octan-1-yl)-2,4,9-trimethyl-7,8-dihydro-[1,3]dioxolo[4,5-g]isoquinolin-5(6H)-one] | 3.7 to 6.8 |  |  | 12
10 | Cc1cc(C)c(CN2CCc3c(c(C)c4c(c3-c3cccs3)O[C@](C)([C@H]3CC[C@H](N(C)C)CC3)O4)C2=O)c(=O)[nH]1 [Compound 32, (R)-6-((4,6-dimethyl-2-oxo-1,2-dihydropyridin-3-yl)methyl)-2-(trans-4-(dimethylamino)cyclohexyl)-2,4-dimethyl-9-(thiophen-2-yl)-7,8-dihydro-[1,3]dioxolo[4,5-g]isoquinolin-5(6H)-one] | 3.4 | 12 |  | 
11 | Cc1cc(C)c(CN2CCc3c(c(C)c4c(c3-c3cncs3)O[C@](C)([C@H]3CC[C@H](N(C)C)CC3)O4)C2=O)c(=O)[nH]1 [Compound 52, (R)-6-((4,6-dimethyl-2-oxo-1,2-dihydropyridin-3-yl)methyl)-2-(trans-4-(dimethylamino)cyclohexyl)-2,4-dimethyl-9-(thiazol-5-yl)-7,8-dihydro-[1,3]dioxolo[4,5-g]isoquinolin-5(6H)-one] | 5.9 | 18 |  | 
12 | Cc1cc(C)c(CN2CCc3c(c(C)c4c(c3-c3ccc(C)o3)O[C@](C)([C@H]3CC[C@H](N(C)C)CC3)O4)C2=O)c(=O)[nH]1 [Compound 40, (R)-6-((4,6-dimethyl-2-oxo-1,2-dihydropyridin-3-yl)methyl)-2-(trans-4-(dimethylamino)cyclohexyl)-2,4-dimethyl-9-(5-methylfuran-2-yl)-7,8-dihydro-[1,3]dioxolo[4,5-g]isoquinolin-5(6H)-one] | 4.4 to 5.5 | 22 |  | 
13 | Cc1cc(C)c(CN2CCc3c(c(C)c4c(c3-c3ccncc3)O[C@](C)([C@H]3CC[C@H](N(C)C)CC3)O4)C2=O)c(=O)[nH]1 [Compound 34, (R)-6-((4,6-dimethyl-2-oxo-1,2-dihydropyridin-3-yl)methyl)-2-(trans-4-(dimethylamino)cyclohexyl)-2,4-dimethyl-9-(pyridin-4-yl)-7,8-dihydro-[1,3]dioxolo[4,5-g]isoquinolin-5(6H)-one] | 3.7 | 32 |  | 
